Test results published in DBAASP.
In brackets after ≈: the same amount, converted by molar mass. Blank lines part the entries; values can stand above or below the compound they belong to.

What was measured:
Experiment in all cases: ≥ marks a high value that may be exact or a test limit, other limits are often not marked, values filed in µg/mL are converted to µM
Micrococcus luteus = system: Micrococcus luteus
[1] = system: Pseudomonas aeruginosa ATCC 27853
[2] = system: Bacillus subtilis ATCC 23857
Aureobasidium pullulans = system: Aureobasidium pullulans
Bacillus megaterium = system: Bacillus megaterium
[3] = system: Corynebacterium glutamicum ATCC 13032
[4] = system: Staphylococcus aureus ATCC 9144
[5] = system: Candida albicans ATCC 10231
[6] = system: Escherichia coli ATCC 25922
Escherichia coli MG1655 = system: Escherichia coli MG1655
[7] = system: Staphylococcus aureus ATCC 43300
Vibrio cholerae = system: Vibrio cholerae
[8] = system: Staphylococcus aureus MTCC 9542
[9] = system: Bacillus subtilis MTCC 14416
Bacillus subtilis 168 HT = system: Bacillus subtilis 168 HT
[10] = system: Escherichia coli K12 MG1655
[11] = system: Staphylococcus aureus ATCC 12600
[12] = system: Escherichia coli ATCC 11775
[13] = system: Micrococcus luteus ATCC 49732
[14] = system: Candida albicans ATCC 14053
[15] = system: Enterococcus faecalis ATCC 29212

Structure (SMILES): C[C@H](NC(=O)[C@H](CCCN=C(N)N)NC(=O)[C@H](Cc1c[nH]c2ccccc12)NC(=O)[C@H](Cc1c[nH]c2ccccc12)NC(=O)[C@H](Cc1c[nH]c2ccccc12)NC(=O)[C@H](Cc1c[nH]c2ccccc12)NC(=O)[C@H](CCCN=C(N)N)NC(=O)[C@H](CCCN=C(N)N)NC(=O)CN)C(=O)N[C@@H](CCCN=C(N)N)C(N)=O [GRRWWWWRAR]
MIC (Micrococcus luteus): 10.3 µM (≈ 15.6 µg/mL) | MIC [1]: 20.7 µM (≈ 31.3 µg/mL) | MIC [2]: 5.15 µM (≈ 7.8 µg/mL) | MIC (Aureobasidium pullulans): ≥ 41.2 µM | MIC (Bacillus megaterium): 2.57 µM (≈ 3.9 µg/mL) | MIC [3]: 5.15 µM (≈ 7.8 µg/mL) | MIC [4]: ≥ 41.2 µM | MIC [5]: 41.2 µM (≈ 62.5 µg/mL) | MIC [6]: 10.3 µM (≈ 15.6 µg/mL)

Structure (SMILES): CC(C)C[C@H](NC(=O)[C@H](CC(C)C)NC(=O)[C@H](CC(C)C)NC(=O)[C@@H]1CCCN1C(=O)[C@H](CCCN=C(N)N)NC(=O)[C@H](CCCN=C(N)N)NC(=O)CN)C(=O)N[C@@H](CCCN=C(N)N)C(=O)N[C@@H](C)C(=O)N[C@@H](CCCN=C(N)N)C(N)=O [GRRPLLLRAR]
MIC (Micrococcus luteus): ≥ 51.8 µM | MIC [1]: > 207 µM | MIC [2]: ≥ 207 µM | MIC (Aureobasidium pullulans): ≥ 207 µM | MIC (Bacillus megaterium): 6.46 µM (≈ 7.79 µg/mL) | MIC [3]: 25.9 µM (≈ 31.3 µg/mL) | MIC [4]: ≥ 207 µM | MIC [5]: 104 µM (≈ 125 µg/mL) | MIC [6]: > 207 µM

Structure (SMILES): CC(C)[C@H](NC(=O)[C@H](CCCCN)NC(=O)[C@H](C)NC(=O)[C@@H](NC(=O)[C@@H](NC(=O)[C@H](C)NC(=O)[C@H](CCCN=C(N)N)NC(=O)[C@H](Cc1c[nH]c2ccccc12)NC(=O)[C@H](Cc1c[nH]c2ccccc12)NC(=O)CN)[C@@H](C)O)C(C)C)C(=O)N[C@@H](CCCN=C(N)N)C(=O)N[C@@H](CCCCN)C(N)=O [GWWRATVAKVRK]
MIC [1]: 25 µM (≈ 36.4 µg/mL) | MIC (Aureobasidium pullulans): 25 µM (≈ 36.4 µg/mL) | MIC [3]: 0.8 µM (≈ 1.17 µg/mL) | MIC [4]: ≥ 100 µM | MIC [5]: 25 µM (≈ 36.4 µg/mL) | MIC [6]: 6.3 µM (≈ 9.18 µg/mL)

Structure (SMILES): CC[C@H](C)[C@@H]1NC(=O)[C@H](CCCCN)NC(=O)[C@@H](NC(=O)[C@H](CC(C)C)NC(=O)[C@@H](NC(=O)[C@H](CCC(N)=O)NC(=O)[C@@H]2CCCN2C(=O)[C@H](CC(C)C)NC(=O)[C@H](Cc2ccccc2)NC(=O)[C@H](CC(N)=O)NC(=O)[C@H](C)NC(=O)[C@H](C)NC(=O)[C@H](CC(C)C)NC(=O)CNC(=O)[C@H](C)NC(=O)[C@@H](NC(=O)[C@@H](N)Cc2cnc[nH]2)[C@@H](C)CC)[C@@H](C)CC)CSSC[C@@H](C(N)=O)NC(=O)[C@H](CCCCN)NC(=O)[C@H](CCCN=C(N)N)NC(=O)[C@H](C)NC1=O [HIAGLAANFLPQILCKIARKC]
MIC [1]: > 43.8 µM | MIC (Escherichia coli MG1655): 21.9 µM (≈ 49.9 µg/mL) | MIC [7]: 43.8 µM (≈ 99.9 µg/mL) | MIC (Vibrio cholerae): 11 µM (≈ 25 µg/mL) | MIC [8]: ≥ 43.8 µM | MIC [9]: 21.9 µM (≈ 49.9 µg/mL)

Structure (SMILES): CC[C@H](C)[C@H](NC(=O)[C@H](CCCN=C(N)N)NC(=O)[C@H](CCSC)NC(=O)[C@@H](NC(=O)[C@H](CCCN=C(N)N)NC(=O)[C@@H](N)Cc1ccccc1)[C@@H](C)CC)C(=O)N[C@@H](CC(C)C)C(=O)N[C@@H](CCCN=C(N)N)C(=O)N[C@H](C(=O)N[C@@H](CC(C)C)C(=O)N[C@@H](CCCCN)C(=O)N[C@@H](CC(C)C)C(=O)O)C(C)C [FRIMRILRVLKL]
MIC (Escherichia coli MG1655): 10.3 µM (≈ 16 µg/mL) | MIC (Bacillus subtilis 168 HT): 10.3 µM (≈ 16 µg/mL)

Structure (SMILES): CC[C@H](C)[C@H](N)C(=O)N[C@@H](C)C(=O)NCC(=O)N[C@@H](CC(C)C)C(=O)N[C@@H](C)C(=O)N[C@@H](C)C(=O)N[C@@H](CC(N)=O)C(=O)N[C@@H](Cc1ccccc1)C(=O)N[C@@H](CC(C)C)C(=O)N1CCC[C@H]1C(=O)N[C@@H](CCC(N)=O)C(=O)N[C@H](C(=O)N[C@@H](CC(C)C)C(=O)N[C@H]1CSSC[C@@H](C(N)=O)NC(=O)[C@H](CCCCN)NC(=O)[C@H](CCCN=C(N)N)NC(=O)[C@H](C)NC(=O)[C@H]([C@@H](C)CC)NC(=O)[C@H](CCCCN)NC1=O)[C@@H](C)CC [IAGLAANFLPQILCKIARKC]
MIC [1]: > 46.6 µM | MIC (Escherichia coli MG1655): 23.3 µM (≈ 49.9 µg/mL) | MIC [7]: > 46.6 µM | MIC (Vibrio cholerae): 11.7 µM (≈ 25 µg/mL) | MIC [8]: 11.7 µM (≈ 25 µg/mL) | MIC [9]: ≥ 46.6 µM

Structure (SMILES): CC[C@H](C)[C@@H]1NC(=O)[C@H](CCCCN)NC(=O)[C@@H](NC(=O)[C@H](CC(C)C)NC(=O)[C@@H](NC(=O)[C@H](CCC(N)=O)NC(=O)[C@@H]2CCCN2C(=O)[C@H](CC(C)C)NC(=O)[C@H](Cc2ccccc2)NC(=O)[C@H](CC(N)=O)NC(=O)[C@H](C)NC(=O)[C@H](C)NC(=O)[C@H](CC(C)C)NC(=O)CNC(=O)[C@H](C)NC(=O)[C@@H](NC(=O)[C@@H](N)CCCCN)[C@@H](C)CC)[C@@H](C)CC)CSSC[C@@H](C(N)=O)NC(=O)[C@H](CCCCN)NC(=O)[C@H](CCCN=C(N)N)NC(=O)[C@H](C)NC1=O [KIAGLAANFLPQILCKIARKC]
MIC [1]: > 44 µM | MIC (Escherichia coli MG1655): 11 µM (≈ 25 µg/mL) | MIC [15]: 22 µM (≈ 49.9 µg/mL) | MIC [7]: > 44 µM | MIC (Vibrio cholerae): 11 µM (≈ 25 µg/mL) | MIC [8]: 5.5 µM (≈ 12.5 µg/mL) | MIC [9]: ≥ 44 µM

Structure (SMILES): CC[C@H](C)[C@H](NC(=O)[C@H](C)NC(=O)[C@H](C)NC(=O)[C@H](CCC(=O)O)NC(=O)[C@H](CCCCN)NC(=O)CNC(=O)[C@@H](NC(=O)[C@H](CC(N)=O)NC(=O)[C@H](CCCCN)NC(=O)[C@@H](NC(=O)[C@@H](NC(=O)[C@H](CO)NC(=O)[C@H](Cc1c[nH]c2ccccc12)NC(=O)[C@H](CC(C)C)NC(=O)CN)[C@@H](C)O)[C@@H](C)CC)C(C)C)C(=O)N[C@@H](C)C(=O)N[C@@H](C)C(=O)NCC(=O)N[C@@H](CCCCN)C(=O)N[C@@H](C)C(=O)N[C@H](C(=O)N[C@@H](CC(C)C)C(=O)NCC(=O)N[C@@H](CO)C(=O)N[C@@H](CC(C)C)C(N)=O)C(C)C [GLWSTIKNVGKEAAIAAGKAVLGSL]
MIC [11]: 0.5 µM (≈ 1.23 µg/mL) | MIC [12]: 0.5 µM (≈ 1.23 µg/mL) | MIC [13]: 2 µM (≈ 4.91 µg/mL)

Continued, values first:

MIC (Bacillus subtilis 168 HT): ≥ 33.8 µM | MIC [10]: ≥ 33.8 µM
Structure (SMILES): CC[C@H](C)[C@H](NC(=O)[C@H](CCC(N)=O)NC(=O)[C@@H](NC(=O)[C@@H](N)CC(C)C)C(C)C)C(=O)NCC(=O)N[C@H](C(=O)N[C@@H](CCCCN)C(=O)N[C@H](C(=O)N[C@H](C(=O)NCC(=O)N[C@H](C(=O)NCC(=O)N[C@@H](CCCN=C(N)N)C(=O)N[C@@H](CC(N)=O)C(=O)N[C@@H](Cc1ccc(O)cc1)C(=O)N[C@@H](C)C(=O)N[C@@H](C)C(=O)N[C@@H](Cc1cnc[nH]1)C(=O)O)C(C)C)C(C)C)[C@@H](C)CC)[C@@H](C)O [LVQIGTKIVGVGRNYAAH]

MIC [11]: ≥ 303 µM | MIC [12]: ≥ 101 µM | MIC [13]: ≥ 910 µM | MIC [14]: ≥ 303 µM
Structure (SMILES): CC(C)[C@H](NC(=O)[C@H](C)NC(=O)[C@@H](NC(=O)[C@H](C)NC(=O)[C@@H]1CCCN1)[C@@H](C)O)C(=O)N[C@@H](Cc1ccccc1)C(=O)N[C@@H](CCCCN)C(=O)O [PATAVFK]

MIC [11]: ≥ 97 µM | MIC [12]: ≥ 97 µM | MIC [13]: ≥ 97 µM | MIC [14]: ≥ 97 µM
Structure (SMILES): CC(C)[C@H](NC(=O)[C@H](C)NC(=O)[C@@H](NC(=O)CNC(=O)[C@@H]1CCCN1)[C@@H](C)O)C(=O)N[C@@H](C)C(=O)N[C@@H](CCCCN)C(=O)O [PGTAVAK]

MIC (Escherichia coli MG1655): ≥ 77 µM | MIC (Bacillus subtilis 168 HT): ≥ 38.5 µM
Structure (SMILES): CC[C@H](C)[C@H](NC(=O)[C@H](CCCCN)NC(=O)[C@@H](N)Cc1c[nH]c2ccccc12)C(=O)N[C@@H](Cc1ccccc1)C(=O)N[C@@H](CCCCN)C(=O)N[C@@H](CC(C)C)C(=O)N[C@@H](CCCCN)C(=O)N[C@@H](CC(C)C)C(=O)N[C@@H](CCCN=C(N)N)C(=O)N[C@@H](CCSC)C(=O)N[C@@H](CC(C)C)C(=O)N[C@@H](Cc1c[nH]c2ccccc12)C(=O)O [WKIFKLKLRMLW]
